Consider 14 molecules from ChEMBL document CHEMBL3352646, “New imidazo[1,2-b]pyrazoles as anticancer agents: synthesis, biological evaluation and structure activity relationship analysis” (Eur J Med Chem, 2014).

The IC50 is the concentration needed to halve the response being measured.

Series [1] can be described thus: Anticancer activity mouse B16F10 cells assessed as growth inhibition by MTT colorimetric assay. The class given is functional, cell-based. To be noted: B16-F10. For orientation: Tetrazolium assays rely on reduction of a dye to a coloured formazan, in cell work by metabolically active cells.
The test system of the next series is SK-MEL-28. Nature of the series: Anticancer activity human SK-MEL-28 cells assessed as growth inhibition by MTT colorimetric assay. The class given is functional, cell-based.
A short description of series [2]: Anticancer activity human U373 cells assessed as growth inhibition by MTT colorimetric assay. Type of series: functional, cell-based, U-373MG ATCC. To be noted: U373 MG.
Series [3] in a line: Anticancer activity human Hs683 cells assessed as growth inhibition by MTT colorimetric assay. The class given is functional, cell-based. The settings on record: Hs 683.
The subject of another series is MCF7. Nature of the series: Anticancer activity human MCF7 cells assessed as growth inhibition by MTT colorimetric assay. Type of series: functional, cell-based.
A further series concerns A549. Nature of the series: Anticancer activity human A549 cells assessed as growth inhibition by MTT colorimetric assay. Type of series: functional, cell-based.
The nature of series [4]: Cytotoxicity against human NHLF cells by MTT colorimetric assay. The class given is cell-based.
A further series has as its system NHDF. Nature of the series: Cytotoxicity against human NHDF cells by MTT colorimetric assay. The class given is cell-based.

For `COc1ccc(-c2cn3nc(-c4ccccc4)c(CN4CCOCC4)c3n2C)cc1`, the IC50 in series [1] was found to be 5 µM; in the series with SK-MEL-28, 14 µM; in series [2], 4 µM; in series [3], 5 µM; with MCF7, 5 µM; in the series on A549 it was 9 µM.

`COc1ccc(-c2c(-c3ccccc3C#N)n3nc(-c4ccccc4)cc3n2C)cc1`: the 50% inhibitory concentration (IC50) stood at 16 µM with SK-MEL-28; 13 µM in series [2]; 26 µM in series [3]; 35 µM in the series with MCF7; 22 µM in the series on A549.

For the molecule `COc1ccc(-c2c(-c3cccc(C)c3)n3nc(-c4ccccc4)cc3n2C)cc1`, the IC50 came to 29 µM with SK-MEL-28; 46 µM in series [2]; 59 µM in series [3]; 75 µM with MCF7; 31 µM in the series on A549.

Consider `COc1ccc(-c2c(-c3ccncc3)n3nc(-c4ccccc4)c(CN4CCOCC4)c3n2C)cc1`, for which the IC50 worked out at 2 µM in series [1]; 5 µM in the series with SK-MEL-28; 12 µM in series [2]; 3 µM in series [3]; 16 µM with MCF7; 5 µM in the series with A549.

Consider `COc1ccc(-c2cn3nc(-c4ccccc4)c(C(=O)N4CCN(C)CC4)c3n2C)cc1`, for which the IC50 in series [1] was 74 µM; with SK-MEL-28, > 100 µM; in series [2], > 100 µM; in series [3], > 100 µM; with MCF7, 88 µM; in the series with A549 it was > 100 µM.

Take `COc1ccc(-c2c(-c3ccc(C)cc3)n3nc(-c4ccccc4)c(CN4CCOCC4)c3n2C)cc1`: the IC50 was 46 µM in series [1]; > 100 µM in the series with SK-MEL-28; 30 µM in series [2]; 48 µM in series [3]; 45 µM in the series on MCF7; 37 µM in the series with A549.

`COc1ccc(-c2c(-c3ccc(C)cc3)n3nc(-c4ccccc4)c(CN4CCCCC4)c3n2C)cc1`: the half-inhibitory concentration (IC50) is 25 µM in series [1]; 39 µM in the series on SK-MEL-28; 33 µM in series [2]; 37 µM in series [3]; 72 µM with MCF7; 51 µM with A549.

As for `COc1ccc(-c2c(-c3ccc(C(F)(F)F)cc3)n3nc(-c4ccccc4)cc3n2C)cc1`, the IC50 (with SK-MEL-28; in series [2]; in series [3]; in the series on MCF7; in the series with A549) was > 100 µM in each case.

`COc1ccc(-c2c(-c3ccc(C(F)(F)F)cc3)n3nc(-c4ccccc4)c(CN4CCN(C)CC4)c3n2C)cc1`: the IC50 turned out to be 23 µM in series [1]; 19 µM in the series with SK-MEL-28; 24 µM in series [2]; 21 µM in series [3]; 20 µM in the series with MCF7; 20 µM in the series with A549.

Turning to `COc1ccc(-c2c(-c3ccc(OC)cc3)n3nc(-c4ccccc4)cc3n2C)cc1`, the IC50 is > 100 µM with SK-MEL-28; 96 µM in series [2]; > 100 µM in series [3]; > 100 µM with MCF7; > 100 µM in the series with A549.

With `COc1ccc(-c2c(-c3ccc(C)cc3)n3nc(-c4ccccc4)c(CN4CCN(C)CC4)c3n2C)cc1`, the IC50 in series [1] turned out to be 12 µM; with SK-MEL-28, 21 µM; in series [2] it was 19 µM; in series [3], 18 µM; with MCF7 it was 18 µM; with A549, 20 µM.

On to `COc1ccc(-c2c(-c3ccc(C(F)(F)F)cc3)n3nc(-c4ccccc4)c(CN4CCOCC4)c3n2C)cc1`, for which the IC50 was found to be 2.1 µM in series [1]; 2.3 µM with SK-MEL-28; 0.8 µM in series [2]; 0.9 µM in series [3]; 1.9 µM in the series on MCF7; 1.3 µM with A549. The Activity entry (in series [4]; with NHDF) was “Non-toxic” each time.

For `COc1ccc(-c2c(-c3ccc(C(F)(F)F)cc3)n(C)c3c(CN4CCOCC4)c(-c4ccccc4)nn23)cc1`, the IC50 in series [1] came to 38 µM; in the series with SK-MEL-28, 28 µM; in series [2] it was 20 µM; in series [3], 62 µM; in the series on MCF7, 59 µM; in the series on A549 it was 37 µM.

Turning to `COc1ccc(-c2cn3nc(-c4ccccc4)c(C(=O)N4CCOCC4)c3n2C)cc1`, the IC50 in series [1] was 76 µM; with SK-MEL-28, > 100 µM; in series [2] it was > 100 µM; in series [3], > 100 µM; with MCF7 it was > 100 µM; with A549, > 100 µM.
